# Source: paper PMC13083723 (Patterns, 2026)
# Residues, ends and D or L forms follow the SMILES beside them. *: point of attachment. Cbz = O=C(OCc1ccccc1)*
# Tested on: Vero-E6 cells
# Experiment: cells
# Type: cell-based
# Conditions: for activation at 10 µM: Chlorocebus sabaeus, Vero C1008, 24 h, read-out: PL_Result
SMILES,activation at 10 µM [%],PL_Result
CC[N+](CC)(CC)CC(=O)Nc1c(C)cccc1C [SPE_K56596464],-0.251,–
O=C(O)CCCNC(=O)c1cccnc1 [SPE_K56691760],0.477,–
O=C(Nc1ccc(N2CCC(C(=O)N3CCOCC3)CC2)cc1)c1cnc(Oc2ccccc2)nc1 [SPE_K57708067],-4.61,–
CC(C)C[C@H](NC(=O)[C@H](Cc1ccccc1)NC(=O)CNC(=O)[C@H](C)NC(=O)[C@@H](N)Cc1ccc(O)cc1)C(=O)O [SPE_K57927309],–,-0.1658
CC1=CC[C@@H](C(C)(C)O)C[C@@H]1O [SPE_K58262380],-11.5,–
CC(C)c1cc(C(=O)N2Cc3ccc(CN4CCN(C)CC4)cc3C2)c(O)cc1O [SPE_K58435339],0.714,–
COc1cc2c(cc1OC)-c1cc3ccc(OC)c(OC)c3c[n+]1CC2 [SPE_K58466253],0.986,–
O=C(/C=C/c1cccnc1)NCCCCC1CCN(C(=O)c2ccccc2)CC1 [SPE_K58550667],2.51,–
Oc1cc(O)c2c(c1)O[C@H](c1ccc(O)c(O)c1)[C@@H](O)C2 [SPE_K58736316],-12.2,–
COc1ccc2cc([C@H](C)C(=O)O)ccc2c1 [SPE_K59197931],-3.31,–
CC(C)Oc1ccc2c(=O)c3cc(C(=O)O)ccc3oc2c1 [SPE_K59339270],-2.83,–
CC(C)[C@@H](N)C(=O)O [SPE_K59424860],0.189,–
O=C(/C=C/C=C/c1ccc2c(c1)OCO2)N1CCCCC1 [SPE_K59522102],2.7,–
CC(C)Nc1nc2cc(Cl)c(Cl)cc2n1[C@H]1O[C@@H](CO)[C@H](O)[C@@H]1O [SPE_K59524082],-6.13,–
CC[C@]1(O)C[C@H]2C[N@](CCc3c([nH]c4ccccc34)[C@@](C(=O)OC)(c3cc4c(cc3OC)N(C)[C@H]3[C@@](O)(C(N)=O)[C@H](O)[C@]5(CC)C=CCN6CC[C@]43[C@@H]65)C2)C1 [SPE_K59753975],7.07,–
c1cc(-c2cnn3cc(-c4ccc(N5CCNCC5)cc4)cnc23)c2cccnc2c1 [SPE_K59831625],29.5,–
CC(C)=CCC[C@](C)(O)[C@H]1CC[C@]2(C)[C@@H]1[C@H](O)C[C@@H]1[C@@]3(C)CC[C@H](O)C(C)(C)[C@@H]3CC[C@]12C [SPE_K60005752],-8.61,–
CN(C)c1ccc(C(=C2C=CC(=[N+](C)C)C=C2)c2ccc(N(C)C)cc2)cc1 [SPE_K60025295],5.79,–
C=CCc1cc(OC)c(O)c(C(=O)NCCO)c1 [SPE_K60102752],-3.89,–
CC(C)C[C@@H](C=O)NC(=O)[C@H](CC(C)C)NC(=O)[C@H](CC(C)C)NC(=O)OCc1ccccc1 [SPE_K60230970] (Cbz-Leu-Leu-Leu-aldehyde),-0.437,–
NCc1cc(O)no1 [SPE_K60441002],-7.28,–

SMILES,activation at 10 µM [%],PL_Result
CCN(C(=O)c1c(O)c2c(Cl)cccc2n(C)c1=O)c1ccccc1 [SPE_K60918217],-1.53,–
N#Cc1cc(F)cc(-c2nc(-c3ccc(F)cn3)no2)c1 [SPE_K61043483],1.97,–
COc1cc(-n2c(S)nc3ccccc3c2=O)c(Cl)cc1Cl [SPE_K61128465],22,–
COc1cccc(NC(=O)/C=C/c2ccc(Cl)cc2)c1 [SPE_K61536336],-7.48,–
Cn1cccc1/C=C1\C(=O)NC(=O)c2ccccc21 [SPE_K61665160],-5.42,–
N=C(N)NC(=O)c1cnccn1 [SPE_K61693562],-1.49,–
CC(C)OC(=O)OCOP(=O)(CO[C@H](C)Cn1cnc2c(N)ncnc21)OCOC(=O)OC(C)C [SPE_K61868322],-3.62,–
CNC(=O)c1cc2c(cn1)[nH]c1ccccc12 [SPE_K61951118],-1.18,–
CC(C)(C)C(=O)NCCCC(=O)O [SPE_K62264492],5.19,–
NC[C@H](CC(=O)O)c1ccc(Cl)cc1 [SPE_K62353271],-10.2,–
CN1CCN(c2c(F)cc3c(=O)c(C(=O)O)cn4c3c2SCC4)CC1 [SPE_K62374253],-11.9,–
COc1[nH]c2ccc(F)cc2c1C(=O)OCC1CCN(CCNS(C)(=O)=O)CC1 [SPE_K62594868],-2.59,–
COc1cccc(-c2cc(=O)c3ccccc3o2)c1N [SPE_K62810658],2.96,–
Cc1cccc(C)c1NC(=O)CN1CCN(CCCC(c2ccc(F)cc2)c2ccc(F)cc2)CC1 [SPE_K62996583],90.9,–
CCN(CCO)CCCOc1ccc2c(Nc3cc(CC(=O)Nc4cccc(F)c4)n[nH]3)ncnc2c1 [SPE_K63923597],-6.57,–
CC#CC(=O)N1CCC[C@H]1c1nc(-c2ccc(C(=O)Nc3ccccn3)cc2)c2c(N)nccn12 [SPE_K64034691],-12.3,–
COc1cc2ncnc(Nc3ccc(F)c(Cl)c3)c2cc1OCCCN1CCOCC1 [SPE_K64052750],-10.1,–
CNCCc1c[nH]cn1 [SPE_K64422603],-17.3,–
Cc1nc(N)sc1-c1ccnc(Nc2ccc(N3CCOCC3)cc2)n1 [SPE_K64866502],-7.46,–
Nc1ncnc2c1ncn2[C@@H]1O[C@H](CO)C[C@H]1O [SPE_K65428967],-10.4,–
COc1ccc([C@H]2CNC(=O)C2)cc1OC1CCCC1 [SPE_K65856711],-5.06,–

SMILES,activation at 10 µM [%],PL_Result
OC[C@H]1O[C@@H](OCCc2ccc(O)cc2)[C@H](O)[C@@H](O)[C@@H]1O [SPE_K66030860],-4.58,–
COc1cc(/C=C/C(=O)O)ccc1O [SPE_K66295376],-10.8,–
CN(C)C/C=C/C(=O)Nc1ccc(C(=O)Nc2cccc(Nc3ncc(Cl)c(-c4c[nH]c5ccccc45)n3)c2)cc1 [SPE_K66401437],6.67,–
O=C(O)C1=CCNCC1 [SPE_K66480997],-5.88,–
O=C(Nc1cccc(Cl)c1)c1ccccn1 [SPE_K66527818],-8.01,–
CC(C)(C)c1ccc(NC(=O)N2CCN(c3ncccc3Cl)CC2)cc1 [SPE_K66541497],-7.73,–
O=C1C=CC[C@@H]2[C@H]3CCCN4CCC[C@@H](CN12)[C@@H]34 [SPE_K66845263],-5.47,–
CCCN(CCC)C(=O)Cc1c(-c2ccc(Cl)cc2)nc2ccc(Cl)cn12 [SPE_K66896751],-0.969,–
CCCCCCCC/C=C\CCCCCCCC(=O)NCCO [SPE_K66956375],-6.58,–
CN(C)CCc1c[nH]c2ccc(CS(=O)(=O)N3CCCC3)cc12 [SPE_K67601717],-4.95,–
O=C(NCCN1CCN(c2ncccn2)CC1)C12CC3CC(CC(C3)C1)C2 [SPE_K67789209],-11.4,–
COc1ccc(CNC(=O)Nc2ncc([N+](=O)[O-])s2)cc1 [SPE_K67860401],-8.12,–
Cc1[nH]c2ccc(F)cc2c1-c1nc2c3cccnc3c3ncccc3c2[nH]1 [SPE_K68003372],-0.56,–
CN(C)c1nc(N)c(C(=O)Nc2cccnc2)nc1Cl [SPE_K68633617],-11.7,–
O=C(COc1ccc(C(=O)c2ccccc2)cc1)NC1CCN(Cc2ccccc2)CC1 [SPE_K68810443],-3.96,–
O=C(Nc1cccnc1)N1CCC(Cc2cccc(Oc3ccc(C(F)(F)F)cn3)c2)CC1 [SPE_K68997413],1.53,–
COc1ccccc1N1CCN(CCCCN2C(=O)c3ccccc3C2=O)CC1 [SPE_K69195780],-5.05,–
COc1cc(N)c(Cl)cc1C(=O)OCCN1CCCCC1 [SPE_K69343602],-4.29,–
C[C@]12C=CC(=O)C=C1CC[C@@H]1[C@@H]2CC[C@]2(C)OC(=O)CC[C@@H]12 [SPE_K69636617],-2.05,–
CC(C)C(=O)OC[C@H]1O[C@@H](n2ccc(N)nc2=O)[C@](C)(F)[C@@H]1OC(=O)C(C)C [SPE_K69726595],-9.49,–
COc1ccccc1N1CCN(CCN(C(=O)C2CCCCC2)c2ccccn2)CC1 [SPE_K69812556],-15.3,–

SMILES,activation at 10 µM [%],PL_Result
Clc1ccc(Nc2nnc(Cc3ccncc3)c3ccccc23)cc1 [SPE_K70163715],-2.12,–
O=C(NC[C@H](O)CN1CCc2ccccc2C1)c1cc(NC2COC2)ncn1 [SPE_K70446295],-3.31,–
C[C@@H]1CN(CCCn2c3ccccc3c3ccccc32)C[C@H](C)N1 [SPE_K70490179],109,–
CNC(=O)c1c(C)oc2cc(Oc3ncnc4cc(OC)c(OC)cc34)ccc12 [SPE_K70504253],8.27,–
CCCCCCCCCCC(=O)O[C@H]1CC[C@H]2[C@@H]3CCC4=CC(=O)CC[C@]4(C)[C@H]3CC[C@]12C [SPE_K70650177],-4.09,–
O=c1n(CCCN2CCN(c3cccc(Cl)c3)CC2)nc2ccccn12 [SPE_K70778732],-8.41,–
Nc1c(S(=O)(=O)O)cc(Nc2cccc3ccccc23)c2c1C(=O)c1ccccc1C2=O [SPE_K71266197],-13.9,–
Cc1c(C(=O)NCc2cccnc2)nn(-c2ccc(Cl)cc2Cl)c1-c1ccc(Cl)cc1 [SPE_K71315565],4.2,–
C=CCC1(CC(C)C)C(=O)NC(=O)NC1=O [SPE_K71350836],-15.8,–
Cc1ccsc1/C=C/C1=NCCCN1C [SPE_K71454870],-13.8,–
CC(C)(Sc1cc(C(C)(C)C)c(O)c(C(C)(C)C)c1)Sc1cc(C(C)(C)C)c(O)c(C(C)(C)C)c1 [SPE_K72029282],-0.8,–
O=S(=O)(c1cccc2cnccc12)N1CCNCC1 [SPE_K72462751],-15.9,–
O=C(Nc1ccc(S(=O)(=O)Nc2ccccc2Cl)c(Cl)c1)c1ccccn1 [SPE_K72687424],-10.9,–
O=C1NC(=O)c2c1c1c3ccccc3[nH]c1c1[nH]c3ccccc3c21 [SPE_K72726508],12.7,–
Nc1c[n+](N2CCOCC2)no1 [SPE_K72922393],-10.9,–
CC(C)(C)c1ccc(-c2nc3ccccc3[nH]2)cc1 [SPE_K73073971],9.59,–
Nc1ccc(C(=O)Oc2ccccc2)c(O)c1 [SPE_K73157543],-14.5,–
COc1ccc(-c2coc3cc(O)cc(O)c3c2=O)cc1 [SPE_K73303757],-15.6,–
CNC[C@H](O)c1cccc(O)c1 [SPE_K73381542],3.82,–
O=C(O)CCCCN(CCc1ccccc1OCc1ccc(CCc2ccccc2)cc1)Cc1ccc(C(=O)O)cc1 [SPE_K73440166],2.18,–
CCCCOc1nc(N)c2c(n1)N(Cc1cccc(CN3CCCC3)c1)CC(=O)N2 [SPE_K73585091],-10.5,–
